According to patent US20060286047A1, “Methods for determining the sequence of a peptide motif having affinity for a substrate” (priority 2005, published 2006):

Legend:
[1] = ELISA assay of peptide motif binding to bleached hair; set-up: species or system human; Binding Activity % Relative to Control: concentration or dose not given beside the values; settings: for Binding Activity % Relative to Control: bleached human hair, biotinylated peptide, streptavidin-HRP/TMB, A450, relative to positive control SEQ ID NO:124; for binding activity to hair compared to the positive control peptide (in words): bleached hair ELISA, summary of Table 7
Description: The hair samples used were 6-inch (15.2 cm) medium brown human hairs obtained from International Hair Importers and Products (Bellerose, N.Y.). The hairs were placed in 90% isopropanol for 30 min at room temperature and then washed 5 times for 10 min each with deionized water. The hairs were air-dried overnight at room temperature. To prepare the bleached hair samples, the air-dried medium brown human hairs were placed in 6% H2O2, which was adjusted to pH 10.2 with ammonium hydroxide, for 10 min at room temperature and then washed 5 times for 10 min each with deionized water. The hairs were air-dried overnight at room temperature.
Ten hair-binding peptide motifs from Table 6 were selected for testing of their hair-binding activity. The ten peptides were synthesized by SynPep (Dublin, Calif.). […] The control peptide had the sequence TPPELLHGDPRS, given as SEQ ID NO:124. The peptides were biotinylated by adding a biotinylated lysine residue at the C-terminus of the amino acid binding sequences for detection purposes and an amidated cysteine was added to the C-terminus of the sequence.
Bleached hair samples were prepared and placed into wells of a custom 24-well biopanning apparatus, as described in Example 1. The hair was blocked with blocking buffer (SuperBlock™ from Pierce Biotechnology, Inc., Rockford, Ill.) at room temperature for 1 h, followed by six washes with TBST-0.5%, 2 min each, at room temperature. Various concentrations of biotinylated, binding peptide were added to each well, incubated for 15 min at 37° C., and washed six times with TBST-0.5%, 2 min each, at room temperature. Then, streptavidin-horseradish peroxidase (HRP) conjugate (Pierce Biotechnology, Inc.) was added to each well (1.0 μg per well), and incubated for 1 h at room temperature. After the incubation, the conjugate solution was removed and the wells were washed six times with TBST-0.5%, 2 min each, at room temperature. TMB substrate (200 μL) (Pierce Biotechnology, Inc.) was added to each well and the color was allowed to develop for between 5 to 30 min, typically for 10 min, at room temperature. Then, stop solution (200 μL of 2 M H2SO4) was added to each well and the solutions were transferred to a 96-well plate and the A450 was measured using a microplate spectrophotometer (Molecular Devices, Sunnyvale, Calif.). The resulting absorbance values, were used to calculate the binding activity of each hair-binding peptide motif relative to the positive control sequence.

[2] = control peptide as identified by Huang et al.; cited from earlier work

124 (TPPELLHGDPRS; Control hair-binding peptide) [compound 124]
Binding Activity % Relative to Control [1]: 100.0% | affinity for hair (in words) [2]: high affinity for hair

90 (PLSTY; Hair-binding peptide motif) [compound 90]
Binding Activity % Relative to Control [1]: 53.0%

95 (YSPIK; Hair-binding peptide motif) [compound 95]
binding activity to hair compared to the positive control peptide (in words) [1]: low binding activity | Binding Activity % Relative to Control [1]: 1.9%

120 (THPLSNTT; Hair-binding peptide motif) [compound 120]
Binding Activity % Relative to Control [1]: 88.3%

119 (SNTTPSPSP; Hair-binding peptide motif) [compound 119]
binding activity to hair compared to the positive control peptide (in words) [1]: comparable to or greater than that of the positive control peptide | Binding Activity % Relative to Control [1]: 94.5%

97 (FPPVP; Hair-binding peptide motif) [compound 97]
Binding Activity % Relative to Control [1]: 81.5%

98 (RPPLD; Hair-binding peptide motif) [compound 98]
binding activity to hair compared to the positive control peptide (in words) [1]: comparable to or greater than that of the positive control peptide | Binding Activity % Relative to Control [1]: 90.3%

121 (SPIKRPPLS; Hair-binding peptide motif) [compound 121]
binding activity to hair compared to the positive control peptide (in words) [1]: low binding activity | Binding Activity % Relative to Control [1]: 4.4%

92 (TLGQA; Hair-binding peptide motif) [compound 92]
Binding Activity % Relative to Control [1]: 86.6%

123 (RLLRLLRLLRLL; Hair-binding peptide motif) [compound 123]
binding activity to hair compared to the positive control peptide (in words) [1]: comparable to or greater than that of the positive control peptide | Binding Activity % Relative to Control [1]: 127.1%

99 (QPLSV; Hair-binding peptide motif) [compound 99]
Binding Activity % Relative to Control [1]: 84.6%
